Four molecules from patent US10323004B2, “Inhibitors of indoleamine 2,3-dioxygenase and methods of their use” (BRISTOL-MYERS SQUIBB COMPANY, priority 2016, dated 2019) can be followed below.

Molecules are shown by their SMILES.

T1 sequence (P14902 whole entry): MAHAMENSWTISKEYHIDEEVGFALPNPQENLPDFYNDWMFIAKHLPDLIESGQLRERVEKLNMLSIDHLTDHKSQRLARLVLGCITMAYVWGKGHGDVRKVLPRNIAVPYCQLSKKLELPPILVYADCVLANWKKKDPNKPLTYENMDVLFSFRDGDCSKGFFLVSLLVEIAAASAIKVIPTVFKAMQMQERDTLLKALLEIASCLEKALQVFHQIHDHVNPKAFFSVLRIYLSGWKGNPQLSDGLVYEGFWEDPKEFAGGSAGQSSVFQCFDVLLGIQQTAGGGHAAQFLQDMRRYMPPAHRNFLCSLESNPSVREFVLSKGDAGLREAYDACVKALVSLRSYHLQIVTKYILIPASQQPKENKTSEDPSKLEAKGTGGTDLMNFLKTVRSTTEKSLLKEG

This assay concerns the target T1, human IDO1 (Homo sapiens, UniProt P14902).
T1 construct: expressed in transfected cells
Put plainly: human IDO1/HEK293 cell IDO inhibition assay (kynurenine production). It counts as cell-based. The conditions noted are these: HEK293 cells stably expressing human IDO1; 20 hours incubation; absorbance at 490 nm; read-out: Biol. Activity (HEK μM) IDO IC50. As to the method: HEK293 cells were transfected with a pCDNA-based mammalian expression vector harboring human IDO1 cDNA (NM 002164.2) by electroporation. They were cultured in medium (DMEM with 10% FBS) containing 1 mg/ml G418 for two weeks. Clones of HEK293 cells that stably expressed human IDO1 protein were selected and expanded for IDO inhibition assay.
The human IDO1/HEK293 cells were seeded at 10,000 cells per 50 μL per well with RPMI/phenol red free media contains 10% FBS in a 384-well black wall clear bottom tissue culture plate (Matrix Technologies LLC) 100 nL of certain concentration of compound was then added to each well using ECHO liquid handling systems. The cells were incubated for 20 hours in 37° C. incubator with 5% CO2.
The compound treatments were stopped by adding trichloroacetic acid (Sigma-Aldrich) to a final concentration at 0.2%. The cell plate was further incubated at 50° C. for 30 minute. The equal volume supernatant (20 μL) and 0.2% (w/v) Ehrlich reagent (4-dimethylaminobenzaldehyde, Sigma-Aldrich) in glacial acetic acid were mixed in a new clear bottom 384-well plate. This plate was then incubated at room temperature for 30 minute. The absorbance at 490 nm was measured on Envision plate reader.
Compound IC50 values were calculated using the counts of 500 nM of a reference standard treatment as one hundred percent inhibition, and counts of no compound but DMSO treatment as zero percent inhibition.
As to `N#Cc1ccc(C(=O)N(Cc2ccccc2)[C@H]2CC[C@H](c3ccnc4ccc(F)cc43)CC2)cc1` [Example 3, N-benzyl-4-cyano-N-(trans-4-(6-fluoroquinolin-4-yl)cyclohexyl)benzamide], the IC50 (commonly the midpoint of a concentration-inhibition curve) was less than 10 µM.

Take `O=C(c1ccc(Cl)cc1)N(Cc1ccccc1)[C@H]1CC[C@H](c2ccnc3ccc(F)cc32)CC1` [Example 2, N-benzyl-4-chloro-N-(trans-4-(6-fluoroquinolin-4-yl)cyclohexyl)benzamide]: the IC50 was less than 1 µM.

Turning to `O=C(Cc1ccc(Cl)cc1)N(Cc1ccccc1)[C@H]1CC[C@@H](c2ccnc3ccc(F)cc32)CC1` [Example 4, N-benzyl-2-(4-chlorophenyl)-N-(cis-4-(6-fluoroquinolin-4-yl)cyclohexyl)acetamide], the 50% inhibitory concentration (IC50) is less than 10 µM.

With `O=C(Cc1ccc(Cl)cc1)N(Cc1ccccc1)[C@H]1CC[C@H](c2ccnc3ccc(F)cc32)CC1` [Example 1, N-benzyl-2-(4-chlorophenyl)-N-(trans-4-(6-fluoroquinolin-4-yl)cyclohexyl)acetamide], the concentration for half-maximal inhibition (IC50) is less than 10 µM.
